{"source": "patent US8501816B2", "about": "“Antitussive compositions comprising memantine” (Cerecor, Inc., priority 2010, dated 2013)", "key": {"[1]": {"experiment": "Sedation and side effects observed in the cough studies"}, "[2]": {"experiment": "Pharmacokinetics of memantine after oral or buccal dosing in male beagle dogs (Example 2)", "type": "in vivo, beagle dog", "set-up": "Cmax/Dose: unit not given beside the values", "conditions": "for AUC(0-inf) / AUC(0-t) / Cmax / Tmax / half-life: male, beagle, dog, plasma, 0.4 mg/kg"}, "H3-receptor": {"test_system": "H3-receptor", "conditions": "hypothalamus, after 5 mg/kg twice daily for 5 days; cited from earlier work"}, "Caco-2 cells": {"test_system": "Caco-2 cells", "experiment": "Memantine in vitro intestinal permeability (Caco-2 cells)", "type": "in vitro ADME", "conditions": "pH 5.0 to 10.5"}, "[3]": {"test_system": "recombinant human histamine receptors", "conditions": "in vitro; cited from earlier work"}, "native NMDA receptors": {"test_system": "native NMDA receptors", "conditions": "in vitro; cited from earlier work"}, "[4]": {"experiment": "Pharmacokinetics of memantine after oral or buccal dosing in male beagle dogs (Example 2)", "type": "in vivo, beagle dog", "set-up": "Cmax/Dose: unit not given beside the values", "method": "The pharmacokinetics of memantine were evaluated after buccal administration in male beagle dogs. Memantine was formulated in water, 3.3 mg/mL sodium hydroxide in water, or 7.5 mg/mL sodium carbonate in water. All dogs received a 0.4 mg/kg dose of memantine. Plasma levels of memantine were determined by LC-MS/MS. Pharmacokinetic parameters were determined for the memantine plasma data.\nFor dosing, dogs were anesthetized with an IV injection of ketamine/diazepam, and maintained by isoflurane intubation during the buccal administration. The dosing solution was pipetted into a circular cylinder to concentrate the dosing solution on one area of the mucosa. At just prior to the 15 minute sample time point, the oral cavity was rinsed with 5 mL of water and dried with gauze Immediately after the rinse, the 15 minute sample was collected."}, "NMDA receptors": {"test_system": "NMDA receptors", "conditions": "cited from earlier work"}, "[5]": {"conditions": "cited from earlier work"}, "[6]": {"conditions": "MMT 0.4 mg/kg Buccal + 3.3 mg/ml NaOH"}, "[7]": {"conditions": "MMT 0.4 mg/kg Buccal + 7.5 mg/ml Na2CO3"}, "[8]": {"conditions": "MMT 0.4 mg/kg Buccal, Control (water)"}, "[9]": {"conditions": "po, MMT 0.4 mg/kg Oral + 15 mg/kg NH4Cl"}, "[10]": {"conditions": "po, MMT 0.4 mg/kg Oral + 25 mg/kg NH4Cl"}, "[11]": {"conditions": "po, MMT 0.4 mg/kg Oral + 30 mg/kg NH4Cl"}, "[12]": {"conditions": "po, MMT 0.4 mg/kg Oral, ControlAve"}, "[13]": {"conditions": "male, beagle, dog, plasma, 0.4 mg/kg, MMT 0.4 mg/kg Buccal + 7.5 mg/ml Na2CO3"}, "[14]": {"conditions": "male, beagle, dog, plasma, 0.4 mg/kg, MMT 0.4 mg/kg Buccal, Control (water)"}}, "note": "“Also recorded” adds a separate entry of the source.", "data": [{"compound": "CC12CC3CC(C)(C1)CC(N)(C3)C2", "note": "[Memantine, 3,5-dimethyltricyclo[3.3.1.1^3,7]decan-1-amine]", "values": [{"measurement": "Side effects / sedation", "setting": "[1]; memantine 10 mg/kg intraperitoneally", "result": "No side effects; also recorded: induced no sedation; also recorded: no sedating effects"}, {"measurement": "Side effects", "setting": "[1]; memantine 30 mg/kg", "result": "slight behavioral changes"}, {"measurement": "Cmax/Dose", "setting": "[2]; MMT 0.4 mg/kg Oral + 15 mg/kg NH4Cl", "result": 6.8}, {"measurement": "Cmax/Dose", "setting": "[2]; MMT 0.4 mg/kg Oral + 25 mg/kg NH4Cl", "result": 5.2}, {"measurement": "Cmax/Dose", "setting": "[2]; MMT 0.4 mg/kg Oral + 30 mg/kg NH4Cl", "result": 5.4}, {"measurement": "Cmax/Dose", "setting": "[2]; MMT 0.4 mg/kg Oral, ControlAve", "result": 5.2}, {"measurement": "AUC(0-inf)", "setting": "[2]; [6]", "result": 112, "unit": "ng·h/mL"}, {"measurement": "AUC(0-t)", "setting": "[2]; [6]", "result": 108, "unit": "ng·h/mL"}, {"measurement": "Cmax", "setting": "[2]; [6]", "result": 52, "unit": "ng/mL"}, {"measurement": "Tmax", "setting": "[2]; [6]", "result": 0.25, "unit": "h"}, {"measurement": "half-life", "setting": "[2]; [6]", "result": 5.2, "unit": "h"}, {"measurement": "AUC(0-t)", "setting": "[2]; [7]", "result": 179, "unit": "ng·h/mL"}, {"measurement": "Tmax", "setting": "[2]; [7]", "result": 0.45, "unit": "h"}, {"measurement": "half-life", "setting": "[2]; [7]", "result": 4.5, "unit": "h"}, {"measurement": "Cmax", "setting": "[2]; [8]", "result": 23, "unit": "ng/mL"}, {"measurement": "Tmax", "setting": "[2]; [8]", "result": 0.75, "unit": "h"}, {"measurement": "half-life", "setting": "[2]; [8]", "result": 5.2, "unit": "h"}, {"measurement": "AUC(0-inf)", "setting": "[2]; [9]", "result": 256, "unit": "ng·h/mL"}, {"measurement": "AUC(0-t)", "setting": "[2]; [9]", "result": 233, "unit": "ng·h/mL"}, {"measurement": "Cmax", "setting": "[2]; [9]", "result": 25, "unit": "ng/mL"}, {"measurement": "Tmax", "setting": "[2]; [9]", "result": 2, "unit": "h"}, {"measurement": "half-life", "setting": "[2]; [9]", "result": 6.7, "unit": "h"}, {"measurement": "AUC(0-inf)", "setting": "[2]; [10]", "result": 179, "unit": "ng·h/mL"}, {"measurement": "AUC(0-t)", "setting": "[2]; [10]", "result": 169, "unit": "ng·h/mL"}, {"measurement": "Cmax", "setting": "[2]; [10]", "result": 20, "unit": "ng/mL"}, {"measurement": "Tmax", "setting": "[2]; [10]", "result": 1.5, "unit": "h"}, {"measurement": "half-life", "setting": "[2]; [10]", "result": 5.5, "unit": "h"}, {"measurement": "AUC(0-inf)", "setting": "[2]; [11]", "result": 168, "unit": "ng·h/mL"}, {"measurement": "AUC(0-t)", "setting": "[2]; [11]", "result": 163, "unit": "ng·h/mL"}, {"measurement": "Cmax", "setting": "[2]; [11]", "result": 25, "unit": "ng/mL"}, {"measurement": "Tmax", "setting": "[2]; [11]", "result": 1.1, "unit": "h"}, {"measurement": "half-life", "setting": "[2]; [11]", "result": 4.8, "unit": "h"}, {"measurement": "AUC(0-inf)", "setting": "[2]; [12]", "result": 210, "unit": "ng·h/mL"}, {"measurement": "AUC(0-t)", "setting": "[2]; [12]", "result": 190, "unit": "ng·h/mL"}, {"measurement": "Cmax", "setting": "[2]; [12]", "result": 22, "unit": "ng/mL"}, {"measurement": "Tmax", "setting": "[2]; [12]", "result": 1.7, "unit": "h"}, {"measurement": "half-life", "setting": "[2]; [12]", "result": 6.5, "unit": "h"}, {"measurement": "density of H3-receptor binding sites increased by", "setting": "H3-receptor", "result": "141±24", "unit": "%"}, {"measurement": "permeability in Caco-2 cells versus pH", "setting": "Caco-2 cells", "result": "gradually increases with an increase in pH"}, {"measurement": "effect at receptors", "setting": "[3]", "result": "no effect"}, {"measurement": "potency of antagonism", "setting": "native NMDA receptors", "result": "micromolar potency"}, {"measurement": "Cmax/Dose", "setting": "[4]; [6]", "result": 12.9}, {"measurement": "Cmax/Dose", "setting": "[4]; [8]", "result": 6.7}, {"measurement": "AUC(0-inf)", "setting": "[4]; [13]", "result": 184, "unit": "ng·h/mL"}, {"measurement": "Cmax", "setting": "[4]; [13]", "result": 54, "unit": "ng/mL"}, {"measurement": "AUC(0-inf)", "setting": "[4]; [14]", "result": 125, "unit": "ng·h/mL"}, {"measurement": "AUC(0-t)", "setting": "[4]; [14]", "result": 119, "unit": "ng·h/mL"}, {"measurement": "ED50 of inhibition of ex vivo [3H]MK-801 binding", "setting": "NMDA receptors", "result": "1.8 ± 1.3", "unit": "mg/kg"}, {"measurement": "solubility", "setting": "[5]; all physiological pHs", "result": "> 30", "unit": "mg/mL"}, {"measurement": "Biopharmaceutics Classification System (BCS) class", "setting": "[5]; highly soluble/highly permeable", "result": "class I"}]}]}
